Assay results as given in ChEMBL document CHEMBL3137381, “MMV Box Onchocerca lienalis screening set”.

What was measured:
Format in all cases: functional
Onchocerca lienalis [1] = experiment: MMV: Percent motility assay at a compound concentration of 1.25e-5 M. Activity score legend: 3: Active, 2: Moderately active; 1: Inactive, 0: Toxic; settings: at 12.5 µM
Onchocerca lienalis [2] = experiment: MMV: Percent motility assay at a compound concentration of 1.9e-7 M. Activity score legend: 3: Active, 2: Moderately active; 1: Inactive, 0: Toxic; settings: at 0.19 µM
Onchocerca lienalis [3] = experiment: MMV: Percent motility assay at a compound concentration of 7.8e-7 M. Activity score legend: 3: Active, 2: Moderately active; 1: Inactive, 0: Toxic; settings: at 0.78 µM
Onchocerca lienalis [4] = experiment: MMV: Percent motility assay at a compound concentration of 3.1e-6 M. Activity score legend: 3: Active, 2: Moderately active; 1: Inactive, 0: Toxic; settings: at 3.1 µM

Row | SMILES | Motility (Onchocerca lienalis [1]) [%] | Motility (Onchocerca lienalis [2]) [%] | Motility (Onchocerca lienalis [3]) [%] | Motility (Onchocerca lienalis [4]) [%]
1 | O=C(Nc1ccc(Cl)c(Cl)c1)Nc1ccc(Cl)c(Cl)c1 | 100 | 100 | 100 | 100
2 | COc1ccc(Nc2nc(N/N=C/c3ccc(O)cc3)nc(Nc3ccc([N+](=O)[O-])cc3)n2)cc1 | 100 | 100 | 100 | 100
3 | N=c1n(CCN2CCCCC2)c2ccccc2n1CC(=O)c1ccc(Cl)c(Cl)c1 | 100 | 100 | 100 | 100
4 | COc1ccc(-c2nc(N3CCN(C(=O)C4CCCCC4)CC3)c3c4c(sc3n2)CCCC4)cc1 | 100 | 100 | 100 | 100
5 | Cc1sc(NC(=O)c2ccco2)c(C(c2cccnc2)N2CCC(Cc3ccccc3)CC2)c1C (centres undefined) | 100 | 100 | 100 | 100
6 | COc1cc(C(=O)Nc2nc3c(cc4c5c(cccc53)CC4)s2)cc(OC)c1OC | 100 | 100 | 100 | 100
7 | COc1ccc(CCN2C(=O)c3[nH]nc(-c4cc(Cl)c(C)cc4O)c3C2c2ccccc2F)cc1 (centres undefined) | 100 | 100 | 100 | 100
8 | O=C(NNc1cc(N2CCCC2)nc(N2CCCC2)n1)c1ccccc1 | 100 | 100 | 100 | 100
9 | COC(=O)c1ccc(Cl)c2c1C1C=CCC1C(c1cccc3ccccc13)N2 (centres undefined) | 100 | 100 | 100 | 100
10 | O=C(CCc1ccccc1)c1ccccc1OCC(O)CN1CCCCC1 (centres undefined) | 100 | 100 | 100 | 100
11 | OC1=C2C(=Nc3ccccc3SC2c2ccccc2)c2ccccc21 (centres undefined) | 100 | 100 | 100 | 100
12 | COc1cc(C(=O)Nc2ccc(-c3nc4ccccc4[nH]3)cc2)cc(OC)c1OC | 100 | 100 | 100 | 100
13 | CCOc1ccc(N2C(N)=NC(N)=NC2(C)C)cc1.Cl | 100 | 100 | 100 | 100
14 | COC(=O)c1ccc(C2C3=C(O)CC(c4ccc(F)cc4)CC3=Nc3ccccc3N2C(=O)c2ccccc2)cc1 (centres undefined) | 100 | 100 | 100 | 100
15 | O=C(CCl)NCCOc1ccc(Cl)cc1Cl | 100 | 100 | 100 | 100
16 | Oc1ccc(-c2nc(-c3ccc4oc5ccc(-c6[nH]c(-c7ccc(O)cc7)nc6-c6ccccc6)cc5c4c3)c(-c3ccccc3)[nH]2)cc1 | 100 | 100 | 100 | 100
17 | CCOc1ccc(CN2CCN(CC(O)COc3ccc(OCC(O)CN4CCN(Cc5ccc(OCC)cc5)CC4)cc3)CC2)cc1 (centres undefined) | 100 | 100 | 100 | 100
18 | CCCCNc1nc(NC(C)(C)C)nc(NC(C)(C)C)n1 | 100 | 100 | 100 | 100
19 | COc1ccc(CCn2c(=N)c(C(=O)NCc3cccnc3)cc3c(=O)n4cccc(C)c4nc32)cc1 | 100 | 100 | 100 | 100
20 | CC(=O)c1sc(NC(=O)Nc2ccc(C)cc2C)nc1C | 100 | 100 | 100 | 100
21 | Cn1c(C(=O)c2cccc3ccccc23)nc2ccccc21 | 100 | 100 | 100 | 100
22 | COc1ccc(Nc2cc(C)nc(NCc3ccccc3)n2)cc1 | 66.66 | 100 | 100 | 100
23 | Oc1ccc2ccccc2c1CNc1nc2ccccc2[nH]1 | 100 | 100 | 100 | 100

Row | SMILES | Motility (Onchocerca lienalis [1]) [%] | Motility (Onchocerca lienalis [2]) [%] | Motility (Onchocerca lienalis [3]) [%] | Motility (Onchocerca lienalis [4]) [%]
24 | O=C(Nc1ccc(-c2nc3ccccc3[nH]2)cc1)c1ccc(Cl)c(Cl)c1 | 100 | 100 | 100 | 100
25 | O=C1c2ccc3c4c(ccc(c24)C(=O)N1CCCCO)C(=O)N(CCCCO)C3=O | 100 | 100 | 100 | 100
26 | OCCNc1nc(Nc2ccc(Cl)c(Cl)c2)nc2ccccc12 | 20 | 100 | 100 | 33.33
27 | Nc1ccc(-c2nc3cc(Oc4ccc(Oc5ccc6[nH]c(-c7ccc(N)cc7)nc6c5)cc4)ccc3[nH]2)cc1 | 100 | 100 | 100 | 100
28 | Cc1cc(N(C)C)nc(Nc2ccc(NC(=O)Nc3ccccc3)cc2)n1 | 100 | 100 | 100 | 100
29 | COc1ccc(C(=O)C(CCC(CNC(C)(C)C)C(=O)c2ccc(OC)cc2)CNC(C)(C)C)cc1 (centres undefined) | 100 | 100 | 100 | 100
30 | COc1cc(C(=O)ON=C(N)Cc2cccc3ccccc23)cc(OC)c1OC | 100 | 100 | 100 | 100
31 | Oc1c(C(Nc2ccccn2)c2cccc(Oc3ccccc3)c2)ccc2cccnc12 (centres undefined) | 6.66 | 100 | 100 | 100
32 | COc1cc(-c2nc(-c3ccccc3)c(-c3ccccc3)[nH]2)cc(OC)c1O | 100 | 100 | 100 | 100
33 | Cc1ccc(Nc2nc(N)c3ccccc3n2)cc1Cl | 100 | 100 | 100 | 100
34 | OC(CNC1CCCCC1)Cn1c2ccc(I)cc2c2cc(I)ccc21 (centres undefined) | 100 | 100 | 100 | 100
35 | CCc1ccc(CNCC(O)c2ccccc2)cc1.Cl (centres undefined) | 100 | 100 | 100 | 100
36 | Br.CCn1c2c(c(=N)c3c1CCC3)CCCC2 | 100 | 100 | 100 | 100
37 | COc1cc(CNCCc2ccc(Cl)cc2)cc(OC)c1O | 100 | 100 | 100 | 100
38 | Cc1ccc2c(C)nc(Nc3nc(C)cc(-c4ccccc4)n3)nc2c1 | 100 | 100 | 100 | 100
39 | CCOc1ccc(Nc2ccnc3cc(Cl)ccc23)cc1 | 100 | 100 | 100 | 100
40 | Oc1ccc(Br)cc1CN1CCN(Cc2ccc(Cl)cc2)CC1 | 100 | 100 | 100 | 100
41 | Br.Cc1ccc(C)c(-c2csc(Nc3ccc(C)c(C)c3)n2)c1 | 100 | 100 | 100 | 100
42 | CCCn1c(=N)c(C(=O)NC2CCCCC2)cc2c(=O)n3cccc(C)c3nc21 | 100 | 100 | 100 | 100
43 | CC(C)(C)c1ccc(C2CC3=Nc4ccccc4N(C(=O)c4ccccc4Cl)C(c4ccc(F)cc4)C3=C(O)C2)cc1 (centres undefined) | 100 | 100 | 100 | 100
44 | Nc1ccn([C@@H]2O[C@H](CO)[C@@H](O)[C@H]2O)c(=O)n1 [CYTIDINE] | 100 | 100 | 100 | 100
45 | O=C(Nc1cccc(C2=NCCN2)c1)Nc1cccc(C2=NCCN2)c1 [IMIDOCARB] | 100 | 100 | 100 | 100
46 | CN(C)c1ccc(C(O)(c2ccc(N(C)C)cc2)c2ccc(N(C)C)cc2)cc1 [METHYLROSANILINE] | 100 | 100 | 66.66 | 100
